pIC50: −log10 of the molar value. Like-named read-outs stand apart in the source and are kept apart here.

In assay [1] the target is recombinant human Mcl-1 (residues 171-327) / Bim interaction (Homo sapiens (Human), UniProt Q07820). Nature of the assay: biochemical. Format: binding. The conditions noted are these: read-out: Mcl-1 HTRF IC50. For orientation: Time-resolved FRET reads energy transfer from a long-lived donor to a nearby acceptor.
The subject of assay [2] is human multiple myeloma cell line, OPM-2. Nature of the assay: Cell viability assay (OPM-2 10 FBS), CellTiter-Glo. Format: cell-based. Put shortly: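 Serially diluted test compounds are incubated 16 h with cells (3000/well) in RPMI 1640 supplemented with 10% FBS. Viability is then measured by luminescence and IC50 calculated by 4-parameter logistic fit.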
Background: In ATP-based viability assays light output follows the ATP content of the culture.

The mark [3] stands for this setting: TR-FRET, Mcl-1(171-327) / biotin-Bim (51-76).
Setting [4] is: Homo sapiens, OPM-2, 16 h, read-out: OPM-2 10% FBS IC50 IP, OPM-2 cells, 10% FBS, 16 h, CellTiter-Glo.
Setting [5] is: 0.1 nM Mcl-1(171-327), 0.05 nM biotin-Bim (51-76).
Where [6] appears, read: read-out: OPM-2 10% FBS IC50 IP, OPM-2 cells, 10% FBS, 16 h, CellTiter-Glo.

Chain of recombinant human Mcl-1 (residues 171-327) / Bim interaction (Q07820 171-327): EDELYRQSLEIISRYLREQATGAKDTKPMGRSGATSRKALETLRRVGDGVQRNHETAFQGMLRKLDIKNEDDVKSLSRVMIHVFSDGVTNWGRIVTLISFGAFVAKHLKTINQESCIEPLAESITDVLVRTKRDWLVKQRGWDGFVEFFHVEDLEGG

For orientation: pIC50 means the negative decadic logarithm of the IC50, by convention in mol/L. Regarding `CO[C@@]1(CC2=NC(C)(C)C(=O)O2)/C=C/C[C@H](C)[C@@H](C)S(=O)(=O)NC(=O)c2ccc3c(c2)N(C[C@@H]2CC[C@H]21)C[C@@]1(CCCc2cc(Cl)ccc21)CO3` [Example 100547, (1S,3′R,6′R,7′S,8′E,11′S,12′R)-6-chloro-7′-((4,4-dimethyl-5-oxo-4,5-dihydro-1,3-oxazol-2-yl)methyl)-7′-methoxy-11′,12′-dimethyl-3,4-dihydro-2H,15′H-spiro[naphthalene-1,22′-[20]oxa[13]thia[1,14]diazatetracyclo [14.7.2.0~3,6~.0~19,24~]pentacosa[8,16,18,24]tetraen]-15′-one 13′,13′-dioxide], the pIC50 in assay [1] (setting [3]) is 10.51; in assay [2] (setting [4]), 5.73.

For `C[C@@H]1[C@@H](C)CCC[C@]2(CC(N3CCCC3)=NO2)[C@@H]2CC[C@H]2CN2C[C@@]3(CCCc4cc(Cl)ccc43)COc3ccc(cc32)C(=O)NS1(=O)=O` [Example 100147, (1S,3′R,6′R,7′S,11′S,12′R)-6-chloro-11′,12′-dimethyl-3″-(1-pyrrolidinyl)-3,4-dihydro-2H,4″H,15′H-dispiro[naphthalene-1,22′-[20]oxa[13]thia[1,14]diazatetracyclo [14.7.2.0~3,6~.0~19,24~]pentacosa[16,18,24]triene-7′,5″-[1,2]oxazol]-15′-one 13′,13′-dioxide], the pIC50 in assay [1] (setting [3]) is 9.52; in assay [2] (setting [4]) it was 6.18.

Turning to `CO[C@@]1(CN2CCN(C3(C#N)COC3)CC2)/C=C/C[C@H](C)[C@@H](C)S(=O)(=O)NC(=O)c2ccc3c(c2)N(C[C@@H]2CC[C@H]21)C[C@@]1(CCCc2cc(Cl)ccc21)CO3` [Example 272, 3-(4-(((1S,3′R,6′R,7′S,8′E,11′S,12′R )-6-chloro-7′-methoxy-11′,12′-dimethyl-13′,13′-dioxido-15′-oxo-3,4-dihydro-2H-spiro[naphthalene-1,22′-[20]oxa[13]thia[1,14]diazatetracyclo [14.7.2.0~3,6~.0~19,24~]pentacosa[8,16,18,24]tetraen]-7′-yl)methyl)-1-piperazinyl)-3-oxetanecarbonitrile], the negative logarithm of the IC50 (pIC50) is 9.84 in assay [1] (setting [5]) and 6.86 in assay [2] (Homo sapiens, OPM-2, 16 h, read-out: OPM-2 10% FBS IC50 IP, OPM-2 cells, 10% FBS, 16 h incubation).

In the case of `C[C@@H]1[C@@H](C)CCC[C@](O)([C@@H](C)C(=O)N(C)C)[C@@H]2CC[C@H]2CN2C[C@@]3(CCCc4cc(Cl)ccc43)COc3ccc(cc32)C(=O)NS1(=O)=O` (single isomer, unassigned) [Example 100118], the negative logarithm of the IC50 (pIC50) in assay [1] (setting [3]) is 8.35; in assay [2] (setting [6]) it was 5.40.

As to `C=C(F)C[C@@]1(O)/C=C/C[C@H](C)[C@@H](C)S(=O)(=O)NC(=O)c2ccc3c(c2)N(C[C@@H]2CC[C@H]21)C[C@@]1(CCCc2cc(Cl)ccc21)CO3` [Example 100564, (1S,3′R,6′R,7′R,8′E,11′S,12′R)-6-chloro-7′-(2-fluoro-2-propen-1-yl)-7′-hydroxy-11′,12′-dimethyl-3,4-dihydro-2H,15′H-spiro[naphthalene-1,22′-[20]oxa[13]thia[1,14]diazatetracyclo [14.7.2.0~3,6~.0~19,24~]pentacosa[8,16,18,24]tetraen]-15′-one 13′,13′-dioxide], the negative logarithm of the IC50 (pIC50) in assay [1] (setting [3]) was 9.48; in assay [2] (setting [4]), 5.84.

`C[C@@H]1[C@@H](C)CCC[C@](O)(CC#N)[C@@H]2CC[C@H]2CN2C[C@@]3(CCCc4cc(Cl)ccc43)COc3ccc(cc32)C(=O)NS1(=O)=O` (single isomer, unassigned) [Example 100080]: the pIC50 in assay [1] (setting [3]) is 9.21; in assay [2] (setting [4]), 6.09.

`COCc1nc(C[C@]2(OC)/C=C/C[C@H](C)[C@@H](C)S(=O)(=O)NC(=O)c3ccc4c(c3)N(C[C@@H]3CC[C@H]32)C[C@@]2(CCCc3cc(Cl)ccc32)CO4)oc1C` [Example 100585, (1S,3′R,6′R,7′S,8′E,11′S,12′R)-6-chloro-7′-methoxy-7′-((4-(methoxymethyl)-5-methyl-1,3-oxazol-2-yl)methyl)-11′,12′-dimethyl-3,4-dihydro-2H,15′H-spiro[naphthalene-1,22′-[20]oxa[13]thia[1,14]diazatetracyclo [14.7.2.0~3,6~.0~19,24~]pentacosa[8,16,18,24]tetraen]-15′-one 13′,13′-dioxide]: the figures for the pIC50 in assay [1] (setting [3]) and in assay [2] (setting [4]) were 10.24 and 6.16, respectively.

Regarding `CN[C@@H]1C[C@H](C)[C@@H](C)S(=O)(=O)NC(=O)c2ccc3c(c2)N(C[C@@H]2CC[C@H]2[C@@](C)(O)C1)C[C@@]1(CCCc2cc(Cl)ccc21)CO3` [Example 100066, (1S,3′R,6′R,7′S,9′R,11′S,12′R)-6-chloro-7′-hydroxy-7′,11′,12′-trimethyl-9′-(methylamino)-3,4-dihydro-2H,15′H-spiro[naphthalene-1,22′-[20]oxa[13]thia[1,14]diazatetracyclo [14.7.2.0~3,6~.0~19,24~]pentacosa[16,18,24]trien]-15′-one 13′,13′-dioxide], the negative logarithm of the IC50 (pIC50) is 8.84 in assay [1] (setting [3]) and 5.42 in assay [2] (setting [6]).

On to `C[C@@H]1[C@@H](C)C/C=C/[C@@](O)(C#CCN2CCS(=O)(=O)CC2)[C@@H]2CC[C@H]2CN2C[C@@]3(CCCc4cc(Cl)ccc43)COc3ccc(cc32)C(=O)NS1(=O)=O` [Example 100389, (1S,3′R,6′R,7′S,8′E,11′S,12′R)-6-chloro-7′-(3-(1,1-dioxido-4-thiomorpholinyl)-1-propyn-1-yl)-7′-hydroxy-11′,12′-dimethyl-3,4-dihydro-2H,15′H-spiro[naphthalene-1,22′-[20]oxa[13]thia[1,14]diazatetracyclo [14.7.2.0~3,6~.0~19,24~]pentacosa[8,16,18,24]tetraen]-15′-one 13′,13′-dioxide], for which the figures for the pIC50 in assay [1] (setting [3]) and in assay [2] (setting [6]) were 10.00 and 6.94, respectively.

Take “(1S,3′R,6′R,7′R,8′E, 11′S,12′R)-6-chloro-12′-(2-hydroxyethyl)-7′-methoxy-11′-methyl-7′-((9aR)-octahydro-2H-pyrido[1,2-a]pyrazin-2-ylmethyl)-3,4-dihydro-2H, 15′H-spiro[naphthalene-1,22′-[20]oxa[13]thia[1,14]diazatetracyclo[14.7.2.0-3,6˜.0˜19,24˜]pentacosa[8,16,18,24]tetraen]-15′-one 13′,13′-dioxide [Example 358]”: the negative logarithm of the IC50 (pIC50) in assay [1] (setting [5]) was 10.18; in assay [2] (read-out: OPM-2 10% FBS IC50 IP, OPM-2 cells, 10% FBS, 16 h incubation), 6.84.

For `C[C@@H]1[C@@H](C)C/C=C/[C@@](O)(Cc2ccncn2)[C@@H]2CC[C@H]2CN2C[C@@]3(CCCc4cc(Cl)ccc43)COc3ccc(cc32)C(=O)NS1(=O)=O` [Example 100151, (1S,3′R,6′R,7′S,8′E,11′S,12′R)-6-chloro-7′-hydroxy-11′,12′-dimethyl-7′-(4-pyrimidinylmethyl)-3,4-dihydro-2H,15′H-spiro[naphthalene-1,22′-[20]oxa[13]thia[1,14]diazatetracyclo [14.7.2.0~3,6~.0~19,24~]pentacosa[8,16,18,24]tetraen]-15′-one 13′,13′-dioxide], the negative-log IC50 (pIC50) was 9.92 in assay [1] (setting [3]) and 7.15 in assay [2] (setting [6]).

Take `COCCOC[C@@]1(O)/C=C/C[C@H](C)[C@@H](C)S(=O)(=O)NC(=O)c2ccc3c(c2)N(C[C@@H]2CC[C@H]21)C[C@@]1(CCCc2cc(Cl)ccc21)CO3` [Example 100445, (1S,3′R,6′R,7′R,8′E,11′S,12′R)-6-chloro-7′-hydroxy-7′-((2-methoxyethoxy)methyl)-11′,12′-dimethyl-3,4-dihydro-2H,15′H-spiro[naphthalene-1,22′-[20]oxa[13]thia[1,14]diazatetracyclo [14.7.2.0~3,6~.0~19,24~]pentacosa[8,16,18,24]tetraen]-15′-one 13′,13′-dioxide]: the pIC50 in assay [1] (setting [3]) was 10.40; in assay [2] (setting [4]), 7.01.

As to `CO[C@@]1(c2cncc(CN(C)C)c2)/C=C/C[C@H](C)[C@@H](C)S(=O)(=O)NC(=O)c2ccc3c(c2)N(C[C@@H]2CC[C@H]21)C[C@@]1(CCCc2cc(Cl)ccc21)CO3` [Example 100554, (1S,3′R,6′R,7′S,8′E,11′S,12′R)-6-chloro-7′-(5-((dimethylamino)methyl)-3-pyridinyl)-7′-methoxy-11′,12′-dimethyl-3,4-dihydro-2H,15′H-spiro[naphthalene-1,22′-[20]oxa[13]thia[1,14]diazatetracyclo [14.7.2.0~3,6~.0~19,24~]pentacosa[8,16,18,24]tetraen]-15′-one 13′,13′-dioxide], the figures for the negative logarithm of the IC50 (pIC50) in assay [1] (setting [3]) and in assay [2] (setting [4]) were 9.64 and 6.28, respectively.

On to `C[C@@H]1[C@@H](C)C/C=C/[C@@](O)(C#CCN(C)C)[C@@H]2CC[C@H]2CN2C[C@@]3(CCCc4cc(Cl)ccc43)COc3ccc(cc32)C(=O)NS1(=O)=O` [Example 100294, (1S,3′R,6′R,7′S,8′E,11′S,12′R)-6-chloro-7′-(3-(dimethylamino)-1-propyn-1-yl)-7′-hydroxy-11′,12′-dimethyl-3,4-dihydro-2H,15′H-spiro[naphthalene-1,22′-[20]oxa[13]thia[1,14]diazatetracyclo [14.7.2.0~3,6~.0~19,24~]pentacosa[8,16,18,24]tetraen]-15′-one 13′,13′-dioxide], for which the negative-log IC50 (pIC50) in assay [1] (setting [3]) is 9.93; in assay [2] (setting [6]), 6.94.

Turning to `CO[C@@]1(C#CCN2CCN3CCOC[C@@H]3C2)/C=C/C[C@H](C)[C@@H](C)S(=O)(=O)NC(=O)c2ccc3c(c2)N(C[C@@H]2CC[C@H]21)C[C@@]1(CCCc2cc(Cl)ccc21)CO3` [Example 100518, (1S,3′R,6′R,7′S,8′E,11′S,12′R)-6-chloro-7′-(3-((9aS)-hexahydropyrazino[2,1-c][1,4]oxazin-8(1H)-yl)-1-propyn-1-yl)-7′-methoxy-11′,12′-dimethyl-3,4-dihydro-2H,15′H-spiro[naphthalene-1,22′-[20]oxa[13]thia[1,14]diazatetracyclo [14.7.2.0~3,6~.0~19,24~]pentacosa[8,16,18,24]tetraen]-15′-one 13′,13′-dioxide], the figures for the pIC50 in assay [1] (setting [3]) and in assay [2] (setting [4]) were 9.37 and 6.18, respectively.

For the origin of these results see patent publication US10821115B2, “Compounds that inhibit Mcl-1 protein” (priority 2017, dated 2020).
